# Reference: paper PMC7816213 (Journal of medicinal chemistry, 2020)
# How the values were obtained:
# Tpl2 = conditions: read-out: Tpl2 IC50; Reported by Ni et al; cited from earlier work
# Microsomal stability = conditions: for Microsomal stability (%): % compound remaining in mouse liver microsomes at 30 min
# STK17B [1] = target: T1, STK17B (Homo sapiens, UniProt O94768); assay: NanoBRET target engagement in HEK293 cells, STK17B; type: cell-based
# T1 sequence (O94768 1-372): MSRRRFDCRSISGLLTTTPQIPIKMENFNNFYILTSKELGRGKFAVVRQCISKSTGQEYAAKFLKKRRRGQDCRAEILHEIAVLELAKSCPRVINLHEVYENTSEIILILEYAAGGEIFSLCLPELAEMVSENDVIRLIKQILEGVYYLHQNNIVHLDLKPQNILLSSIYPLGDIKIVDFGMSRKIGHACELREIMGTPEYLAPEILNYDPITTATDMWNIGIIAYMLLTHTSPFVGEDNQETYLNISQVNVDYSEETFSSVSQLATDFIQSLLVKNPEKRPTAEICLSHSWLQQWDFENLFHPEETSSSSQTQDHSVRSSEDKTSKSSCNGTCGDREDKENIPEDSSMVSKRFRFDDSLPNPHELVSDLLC
# STK17B [2] = target: T1, STK17B; conditions: KinaseSeeker IC50, compared with 4
# [3] = target: 403 wild type human kinases; assay: DiscoverX KINOMEscan scanMAX panel; type: binding; conditions: for kinases with >75% displacement of the immobilized ligand: scanMAX panel of 403 wild type human kinases at 1 μM
# STK17B [4] = target: T1, STK17B; assay: DiscoverX KINOMEscan binding, STK17B; conditions: DiscoverX binding assay
# STK17A = target: T2, STK17A (Homo sapiens, UniProt Q9UEE5); assay: Eurofins enzyme inhibition assay, STK17A; type: biochemical
# T2 sequence (Q9UEE5 1-414): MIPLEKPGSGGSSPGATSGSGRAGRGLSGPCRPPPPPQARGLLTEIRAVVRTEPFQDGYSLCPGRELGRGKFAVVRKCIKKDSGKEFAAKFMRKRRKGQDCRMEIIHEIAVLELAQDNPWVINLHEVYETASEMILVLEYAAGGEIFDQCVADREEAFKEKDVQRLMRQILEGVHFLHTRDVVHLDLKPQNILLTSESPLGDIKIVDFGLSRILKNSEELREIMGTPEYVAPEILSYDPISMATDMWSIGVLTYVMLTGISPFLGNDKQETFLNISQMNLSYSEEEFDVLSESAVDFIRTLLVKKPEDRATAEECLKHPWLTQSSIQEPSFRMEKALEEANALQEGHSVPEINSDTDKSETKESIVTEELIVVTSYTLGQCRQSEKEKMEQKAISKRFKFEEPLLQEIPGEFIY
# STK17B [5] = target: T1, STK17B
# STK17B [6] = target: T1, STK17B; assay: biochemical
# DAPK family = conditions: read-out: IC50 on the DAPK family; cited from earlier work
smiles,measurement,setting,value
"CSc1ccc(-c2cc3ncnc(SCC(=O)O)c3s2)cc1 [Compound 4, 2-((6-(4-(Methylthio)phenyl)thieno[3,2-d]pyrimidin-4-yl)thio)acetic acid]",IC50,Tpl2,3400 nM
same,compound consumed in mice liver microsomes,Microsomal stability; After 30 minutes,100%
"O=C(O)COc1ncnc2cc(-c3ccc4[nH]ncc4c3)sc12 [Compound 6, reference compound]",IC50,Tpl2,1000 nM
"CSc1cccc(-c2cc3ncnc(SCC(=O)O)c3s2)c1 [Compound 11b, 2-((6-(3-(Methylthio)phenyl)thieno[3,2-d]pyrimidin-4-yl)thio)acetic acid]",fold less potent than 4 in the STK17B cell assay,"STK17B [1]; NanoBRET IC50, compared with 4",about 2.5 fold
same,fold less potent than 4 in the STK17B binding assay,STK17B [2],about 2.5 fold
"O=C(O)CSc1ncnc2cc(-c3ccc(C4CC4)cc3)sc12 [Compound 11h, 2-((6-(4-Cyclopropylphenyl)thieno[3,2-d]pyrimidin-4-yl)thio)acetic acid]",Microsomal stability (%),Microsomal stability,> 50%
"O=C(O)CSc1ncnc2cc(-c3cccc(N4CCOCC4)c3)sc12 [Compound 11o, 2-((6-(3-Morpholinophenyl)thieno[3,2-d]pyrimidin-4-yl)thio)acetic acid]",Microsomal stability (%),Microsomal stability,> 50%
"O=C(O)CSc1ncnc2cc(-c3ccc(N4CCOCC4)cc3)sc12 [Compound 11p, 2-((6-(4-Morpholinophenyl)thieno[3,2-d]pyrimidin-4-yl)thio)acetic acid]",Microsomal stability (%),Microsomal stability,> 50%
"O=C(O)CSc1ncnc2cc(-c3cc4ccccc4s3)sc12 [Compound 11s, 2-((6-(Benzo[b]thiophen-2-yl)thieno[3,2-d]pyrimidin-4-yl)thio)acetic acid]",kinases with >75% displacement of the immobilized ligand,[3],Eight
same,selectivity over CAMKK1 and CAMKK2,STK17B [4],< 10 fold
same,selectivity for STK17B over CAMKK2 in cells,STK17B [1]; NanoBRET target engagement assays,> 10 fold
same,IC50,STK17A,5000 to 9000 nM
same,selectivity for STK17B over STK17A,STK17B [5]; enzyme assays,> 100 fold
same,selectivity for STK17B over all of the other kinases tested,STK17B [5]; enzyme assays,> 100 fold
same,IC50,STK17B [6],43 ± 3.5 nM
same,Microsomal stability (%),Microsomal stability,> 50%
"COc1ccc(-c2cc3ncnc(SCC(=O)O)c3s2)cc1F [Compound 11z, 2-((6-(3-Fluoro-4-methoxyphenyl)thieno[3,2-d]pyrimidin-4-yl)thio)acetic acid]",drop in cell potency,"STK17B [1]; NanoBRET, compared with 11y",1.3 fold
"O=C(O)CSc1ncnc2sc(-c3cc4ccccc4s3)cc12 [Compound 19g, 2-((6-(Benzo[b]thiophen-2-yl)thieno[2,3-d]pyrimidin-4-yl)thio)acetic acid]",kinases with >65% displacement of the immobilized ligand,[3]; scanMAX panel at 1 μM,5
same,kinases with >75% displacement of the immobilized ligand,[3],no kinase
same,fold less active as an inhibitor of STK17B than the chemical probe 11s,STK17B [5]; 19g compared to 11s (Table 9),> 100 fold
CN1CCN(c2ccc3nc(-c4c(N)c5c(F)cccc5[nH]c4=O)[nH]c3c2)CC1 [dovitinib],IC50,DAPK family,1000 to 5000 nM
